According to US20180116993A1, “MODULATORS OF FARNESOID X RECEPTOR AND METHODS FOR THE USE THEREOF” (XIAMEN UNIVERSITY, priority 2015, published 2018):
Where two headings read alike, the source gives them in different places. Marks after values point to notes of the source that are not given here.

Experiments:
[1] = molecular target: T1, full-length FXR (Homo sapiens, UniProt Q96RI1); experiment: Cell-based FXR transactivation, EcRE luciferase reporter in COS-7 cells; details: for fold induction at 5 µM / Cell-based FXR transactivation Fold changes by 5 μM compound: 5 μM compound; for fold induction at 5 µM / EC50: EcRE luciferase reporter; for Cell-based FXR transactivation Fold changes by 5 μM compound: positive: induction, minus: repression
T1 construct: The cells were co-transfected with plasmids encoding full-length FXR and the cognate luciferase reporter EcRE-Luc; expressed in transfected cells; host or cells: COS-7
T1 sequence (Q96RI1 1-486): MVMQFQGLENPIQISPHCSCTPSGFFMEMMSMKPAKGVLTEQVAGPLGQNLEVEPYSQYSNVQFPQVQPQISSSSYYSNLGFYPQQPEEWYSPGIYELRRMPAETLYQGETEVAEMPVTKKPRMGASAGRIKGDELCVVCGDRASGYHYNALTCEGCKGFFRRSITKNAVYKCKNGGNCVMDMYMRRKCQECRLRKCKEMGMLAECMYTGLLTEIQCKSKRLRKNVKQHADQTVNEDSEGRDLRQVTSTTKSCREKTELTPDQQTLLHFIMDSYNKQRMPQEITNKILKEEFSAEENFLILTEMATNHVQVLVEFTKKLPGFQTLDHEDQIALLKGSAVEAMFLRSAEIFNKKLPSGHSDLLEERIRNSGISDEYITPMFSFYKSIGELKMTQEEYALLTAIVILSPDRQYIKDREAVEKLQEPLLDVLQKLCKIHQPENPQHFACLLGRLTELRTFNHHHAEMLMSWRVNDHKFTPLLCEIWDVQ
Procedure: COS-7 cells were cotransfected with plasmids encoding full length FXR.
For transient transfection assay, COS-7 cells were maintained in DMEM containing 10% fetal bovine serum and were transiently transfected using Lipofectamine 2000 (Invitrogen). Before 24 h of transfection, 24-well plates were plated. The cells were co-transfected with plasmids encoding full-length FXR and the cognate luciferase reporter EcRE-Luc. Ligands were added 5 hours after transfection. Cells were harvested 24 hours later for the luciferase assays according to the manufacturer's instructions (Dual-Luciferase® Reporter Assay System, Promega). Luciferase activities were normalized to renilla activity co-transfected as an internal control.

[2] = molecular target: T2, FXR ligand binding domain (LBD) (Homo sapiens, UniProt Q96RI1); experiment: AlphaScreen assay: FXR LBD recruitment of coregulator peptide motifs (SRC2-3, SRC1-2); assay type: biochemical
T2 construct: made in house
T2 sequence (Q96RI1 262-486 limits assumed): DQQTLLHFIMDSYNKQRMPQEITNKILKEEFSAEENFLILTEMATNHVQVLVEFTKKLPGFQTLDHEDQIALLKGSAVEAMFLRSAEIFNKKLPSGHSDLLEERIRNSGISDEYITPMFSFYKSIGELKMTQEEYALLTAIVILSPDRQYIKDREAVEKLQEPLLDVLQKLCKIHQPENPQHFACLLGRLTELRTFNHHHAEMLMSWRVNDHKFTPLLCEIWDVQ
Procedure: In search of novel ligands for FXR, we used FXR ligand binding domain (LBD) as a bait to screen chemical libraries based on AlphaScreen biochemical assay, which determines the efficacy of small molecules in influencing binding affinity of FXR with coregulator peptides (see e.g., Jin et al., (2013) Nature communications 4, 1937).
The binding of the cofactor peptide motifs to FXR ligand binding domain (LBD) in response to ligands was determined by AlphaScreen assays using a hexahistidine detection kit from Perkins-Elmer. The FXR LBD protein was purified as described previously (see e.g., Jin et al., (2013) Nature communications 4, 1937). The experiments were conducted with approximately 20-40 nM receptor LBD and 20 nM biotinylated cofactor peptides in the presence of 5 μg/ml donor and acceptor beads in a buffer containing 50 mM MOPS, 50 mM NaF, 0.05 mM CHAPS, and 0.1 mg/ml bovine serum albumin, all adjusted to a pH of 7.4.

[3] = tested on: RA-resistant human colon cancer HCT116 cells; experiment: MTT cell viability assay, HCT116; assay type: cell-based; details: 48 h, read-out: Cell viability as a percentage of the cells treated with DMSO, HCT116; for viability at 20 µM: HCT-116, 20 uM; for viability at 40 µM: HCT-116, 40 uM
Description: (§1) The MTT assay is a colorimetric assay for assessing cell metabolic activity. It is widely used in high-throughput screening of antitumor drugs due to its high sensitivity and economical features. In this example, MTT was used to detect the inhibitory effects of compounds on various cancer cell lines. Cancer cells including human colorectal adenocarcinoma HCT15 cells, RA-resistant human colon cancer HCT116 cells, human cervical carcinoma Hela cells, human hepatoma HepG2 cells and human breast cancer MCF7 cells were cultured in DMEM medium containing 10% fetal bovine serum. 20 uM or 40 uM of compounds were administered to treat cells, cell viability is detected by MTT assay and expressed as a percentage of the cells treated with DMSO (Table 4).

[4] = tested on: human cervical carcinoma Hela cells; experiment: MTT cell viability assay, Hela; assay type: cell-based; details: 48 h, read-out: Cell viability as a percentage of the cells treated with DMSO, Hela
Description: as §1

[5] = tested on: human breast cancer MCF7 cells; experiment: MTT cell viability assay, MCF-7; assay type: cell-based; details: 48 h, read-out: Cell viability as a percentage of the cells treated with DMSO, MCF-7
Description: as §1

[6] = tested on: human hepatoma HepG2 cells; experiment: MTT cell viability assay, HepG2; assay type: cell-based; details: 48 h, read-out: Cell viability as a percentage of the cells treated with DMSO, HepG2
Description: as §1

[7] = tested on: human colorectal adenocarcinoma HCT15 cells; experiment: MTT cell viability assay, HCT15; assay type: cell-based; details: 48 h, read-out: Cell viability as a percentage of the cells treated with DMSO, HCT15; for viability at 20 µM: HCT-15, 20 uM; for viability at 40 µM: HCT-15, 40 uM
Description: as §1

[8] = tested on: db/db mice; experiment: Hepatic triglyceride, liver histology, serum ALT and ALP in high-fat diet fed db/db mice; assay type: in vivo, mouse; details: for Serum ALP (U/L): vehicle 129 ± 15
Procedure: Liver tissues fixed in 4% paraformaldehyde in example 5 were performed for H&E staining by standard procedures. Liver tissues fixed in 4% paraformaldehyde were embedded in optimum cutting temperature compound (OCT), and cryosectioned. Frozen liver sections were stained with 0.3% oil red O according to standard procedures.
The triglyceride levels in liver tissues from mice treated with compounds were analyzed using Tissue triglyceride assay kit (Applygen, Beijing, China).
Alkaline Phosphatase (ALP) is a marker of cholestasis. Cholestasis can be suspected when there is an elevation of ALP enzymes. In fact, greater than 90% of patients with bile stasis will have an elevated alkaline phosphatase. […] The aminotransferase is used to evaluate the presence of hepatitis and may be elevated in cholestasis or with common bile duct obstruction. In this example, 8-10 week age db/db mice were fed with high-fat diet and treated with 10 mg/kg of compounds once daily for 10 days as in Example 5. The activities of serum ALP and ALT were analyzed using ALP kit and ALT kit, respectively (Nanjing Jiancheng Engineering Institute, China).

[9] = SRC1-2 peptide, Table 1, read-out: EC50 (μM) of FXR binding by AlphaScreen assay recruit SRC1-2
[10] = SRC2-3 peptide, Table 1, read-out: EC50 (μM) of FXR binding by AlphaScreen assay recruit SRC2-3
[11] = SRC1-2 peptide, Table 2, read-out: EC50 (μM) of FXR binding by AlphaScreen assay recruit SRC1-2
[12] = SRC2-3 peptide, Table 2, read-out: EC50 (μM) of FXR binding by AlphaScreen assay recruit SRC2-3
[13] = 10 mg/kg once daily for 10 days
[14] = 10 mg/kg once daily for 10 days, vehicle 377 ± 48, Table 17

Row | Cell-based FXR transactivation Fold changes by 5 μM compound ([1]; Table 2) | EC50 ([1]; Table 2) | EC50 [2, 11] | EC50 [2, 12] | SMILES | viability at 20 µM [3] | viability at 40 µM [3] | viability at 20 µM [4] | viability at 40 µM [4] | viability at 20 µM [5] | viability at 40 µM [5] | viability at 20 µM [6] | viability at 40 µM [6] | viability at 20 µM [7] | viability at 40 µM [7] | other results
1 | 3 | 1000 to 10000 nM | – | – | CC1(C)C2CCC1(C)C(OC(=O)c1ccc([N+](=O)[O-])cc1)C2 (stereo not shown) [XD-14, 1,7,7-trimethyl-bicyclo[2.2.1]-heptan-2-yl 4-nitrobenzoate] | 60 ± 3% | 42 ± 3% | 90 ± 1% | 80 ± 5% | 91 ± 7% | 84 ± 2% | 83% | 77 ± 1% | 64 ± 4% | 58 ± 4% | Serum ALP (U/L) [8, 13]: 86 ± 20^a U/L; Serum ALT (U/L) [8, 14]: 62 ± 11^c U/L
2 | 1.5 | – | – | – | O=C(OC1CCCCCCC1)C1CCC(O)CC1 (stereo not shown) [XD-19, cyclooctyl 4-hydroxy-cyclohexane-carboxylate] | – | – | – | – | – | – | – | – | – | – | –
3 | 1.5 | – | – | – | CC1(C)C2CCC1(C)C(OC(=O)C1CCC(N)CC1)C2 (stereo not shown) [XD-21, 1,7,7-trimethyl-bicyclo[2.2.1]-heptan-2-yl 4-aminocyclo-hexane-carboxylate] | – | – | – | – | – | – | – | – | – | – | –
4 | 3 | > 1000 nM | 1 to 10 µM | 1 to 10 µM | Nc1ccc(C(=O)OC2CC3CCC2C3)cc1 (stereo not shown) [XD-22, bicyclo[2.2.1]-heptan-2-yl 4-aminobenzoate] | 89 ± 1% | 65 ± 4% | 100 ± 2% | 100 ± 4% | 100 ± 2% | 100 ± 1% | 100 ± 3% | 100 ± 8% | 100 ± 4% | 100 ± 4% | –
5 | −2 | < 1000 nM | – | – | O=C(OC1CCC2CCCCC2C1)c1ccc([N+](=O)[O-])cc1 (stereo not shown) [XD-26, decahydro-naphthalen-2-yl 4-nitrobenzoate] | 100 ± 2% | 92 ± 2% | 87% | 70 ± 2% | 100 ± 2% | 92 ± 2% | 100 ± 2% | 100 ± 2% | 86 ± 2% | 56 ± 2% | –
6 | 2 | 1000 to 10000 nM | < 1 µM | < 1 µM | Cc1cc(C(=O)OC2CCC3CCCCC3C2)ccc1F (stereo not shown) [XD-34, decahydro-naphthalen-2-yl 4-fluoro-3-methylbenzoate] | 98 ± 6% | 94 ± 6% | 98 ± 6% | 97 ± 6% | 100 ± 6% | 99 ± 6% | 100 ± 6% | 88 ± 6% | 100 ± 6% | 100 ± 6% | Serum ALP (U/L) [8, 13]: 91 ± 18^a U/L; Serum ALT (U/L) [8, 14]: 73 ± 20^b U/L

Further lines, the compound ahead of its results:

Row | SMILES | Cell-based FXR transactivation Fold changes by 5 μM compound ([1]; Table 2) | EC50 ([1]; Table 2) | EC50 [2, 11] | EC50 [2, 12] | viability at 20 µM [3] | viability at 40 µM [3] | viability at 20 µM [4] | viability at 40 µM [4] | viability at 20 µM [5] | viability at 40 µM [5] | viability at 20 µM [6] | viability at 40 µM [6] | viability at 20 µM [7] | viability at 40 µM [7] | other results
7 | COc1ccc(OC(=O)C23CC4CC(CC(Cl)(C4)C2)C3)cc1 [Tricyclo-[3.3.1.1^3,7]decane-1-carboxylic acid, 3-chloro-, 4-methoxyphenyl ester] | – | – | – | – | – | – | – | – | – | – | – | – | – | – | fold induction at 5 µM ([1]; Table 1): > 10; EC50 ([1]; Table 1): < 1000 nM; EC50 [2, 9]: < 1 µM; EC50 [2, 10]: < 1 µM
8 | O=C(Oc1ccc(O)cc1)C12CC3CC(CC(C3)C1)C2 [Tricyclo-[3.3.1.1^3,7]decane-1-carboxylic acid, 4-hydroxy-phenyl ester] | – | – | – | – | – | – | – | – | – | – | – | – | – | – | fold induction at 5 µM ([1]; Table 1): > 10; EC50 ([1]; Table 1): < 1000 nM; EC50 [2, 9]: < 1 µM; EC50 [2, 10]: < 1 µM
9 | Nc1cccc(C(=O)OCC23CC4CC(CC(C4)C2)C3)c1 [Tricyclo-[3.3.1.1^3,7]decane-1-methanol, 1-(3-aminobenzoate)] | – | – | – | – | – | – | – | – | – | – | – | – | – | – | fold induction at 5 µM ([1]; Table 1): > 10; EC50 ([1]; Table 1): < 1000 nM; EC50 [2, 9]: < 1 µM; EC50 [2, 10]: < 1 µM
10 | Cc1cc(C(=O)OC2CC3CCC2(C)C3(C)C)ccc1F (stereo not shown) [XD-1, 1,7,7-trimethyl-bicyclo[2.2.1]-heptan-2-yl 4-fluoro-3-methylbenzoate] | 5 | 1000 to 10000 nM | 1 to 10 µM | 1 to 10 µM | 96 ± 2% | 62 ± 3% | 100 ± 5% | 70 ± 3% | 100 ± 2% | 65% | 100 ± 2% | 62 ± 7% | 93 ± 2% | 42 ± 3% | –
11 | COc1cc(C(=O)OC2CC3CCC2(C)C3(C)C)ccc1F (stereo not shown) [XD-3, 1,7,7-trimethyl-bicyclo[2.2.1]-heptan-2-yl 4-fluoro-3-methoxybenzoate] | 5 | 1000 to 10000 nM | 1 to 10 µM | 1 to 10 µM | 80 ± 4% | 41 ± 4% | 100 ± 1% | 66 ± 3% | 100 ± 4% | 40% | 100 ± 3% | 70 ± 3% | 73 ± 5% | 40 ± 1% | Hepatic triglyceride (mM/g) ([8]; 10 mg/kg for 10 days, vehicle 148 ± 14): 80 ± 19 ^a mM/g; Serum ALT (U/L) ([8]; 10 mg/kg for 10 days, vehicle 377 ± 48, Table 15): 185 ± 29 ^a U/L
